Take `CC(C)N1CCC(CN2CCN(CC3CCN(C(C)C)CC3)C2=C(C#N)C#N)CC1`: the melting point (usually the temperature of the solid-liquid transition) fell in the range of 172 to 174 °C. With `O=C(O)Cc1cccc(Oc2cccc(Cl)c2)c1O` the figure was 99 to 102 °C; with `CC(=O)c1c(-c2ccc(F)cc2)[nH]c(-c2ccncc2)c1C`, 202 to 203 °C. With `COc1ccc2c(c1OC)C(=O)O[C@@H]2[C@H]1c2c(c(N=[N+]=[N-])c3c(c2OC)OCO3)CCN1C` the figure was 177 to 178 °C; with `COc1ccc2ccccc2c1C1OC(=O)NC1=O` (stereo not drawn), 199 to 201 °C; with `COC(=O)N1Cc2c(-c3ccc(F)cc3)ncn2-c2ccccc21`, 156 to 160 °C. In turn, `COc1cc2c(cc1-c1ccccc1F)NC(=O)CC(c1ccnc(C#N)c1)=N2` returned a melting point of 240 to 242 °C. With `C#CCON=Cc1c(C(=O)OC)[nH]c2c(C)ccc(C)c12` the figure was 113 to 114 °C.

For `CCCCC(=O)Nc1ncc(Br)c(C)c1[N+](=O)[O-]`, the melting point fell in the range of 134 to 135 °C. `OC1CSC(Oc2ccc(-c3ccsc3)nc2)C(O)C1O` (stereo not drawn) showed a melting point of 154 °C.

Compound `CCOC(=O)c1coc(=O)cc1S(C)(=O)=O` gave a melting point of 95 to 97 °C.

`COC(=O)Cc1ccc(CNC(=O)C2Cc3ccccc3N2S(=O)(=O)c2ccc(-c3cccc(C(F)(F)F)c3)cc2)cc1` (stereo not drawn) had a melting point of 74 °C.

Compound `O=C(OCCCl)C(O)c1ccccc1` (stereo not drawn) gave a melting point of 43 to 45 °C. In turn, `O=C(O)CCCS(=O)(=O)c1ccccc1` yielded a melting point of 94 to 95 °C.

`CCCCCc1c(C(C)C)nc(C(C)C)c(CO)c1-c1ccc(C)cc1`: the melting point is 92 to 94 °C. With `CC(C)OC(N)=C(C#N)C(=N)S` the figure was 170 °C; with `Cc1cccc(C2CCN(C(=O)CCC(=O)c3ccc4c(c3)CCN(C(=O)C(F)(F)F)CC4)CC2)c1`, 128 to 129 °C; with `Oc1ccc2oc(-c3cc(OCc4ccccc4)c(O)cc3-c3ccccc3)cc2c1`, 186 to 187 °C.

For the compound `COc1cc2c(cc1-c1c(C)nn(C)c1C)-c1c(-c3cccs3)c3c(n1CC2)C(=O)N(C(C)C)CCN(C(C)=O)C3`, the melting point was in the range of 178 to 180 °C.

`NC(=O)NCC(C(=O)O)C(F)(F)F` (stereo not drawn) gave a melting point of 149 to 150 °C. The value for `NC(=O)c1cc(C(=O)O)c2c(c1)C(C(=O)O)CCN2` (stereo not drawn) was 265 to 266 °C; that for `CCc1nc(-c2ccc(OCCCn3ccnc3C)cc2)no1` was 77 to 78.5 °C; that for `Clc1ccc2c(c1)C(c1ccccc1)Nc1nncn1-2` (stereo not drawn) was 242 to 244 °C. `O=c1oc2ccccc2n2cnc(-c3noc(C4CC4)n3)c12` gave a melting point of 234 to 236 °C. With `COc1ccc(S(=O)(=O)Nc2ccccc2Nc2ncccn2)cc1` the figure was 193 to 195 °C.

Compound `Cc1ccc(S(=O)(=O)N2CC[C@@H](C)[C@@H]2c2ccc(F)cc2)cc1` (racemic) returned a melting point of 112 °C. In the case of `CCCc1ccc2c(=O)cc(C(=O)O)[nH]c2c1`, the melting point is over 240 °C. The value for `CCOC(=O)c1ccc(C(=O)OCC)nc1` was 46 to 47 °C; that for `Cc1cc([C@@H](O)[C@@H](C)N2CCC(O)(c3ccc(C(F)(F)F)cc3)CC2)cc(C)c1O[Si](C(C)C)(C(C)C)C(C)C` (relative stereo) was 177 to 178 °C. With `CN1CCc2c(Cl)ccc3c4c(n(c23)CC1)CCC4`, the melting point was 138 to 140 °C. With `CCOC(=O)C1(C(=O)Nc2ccc(Br)cc2C)CCCC1` the figure was 64 to 67 °C; with `O=C(CSCCCOc1ccccc1)NNC(=O)c1ccc(O)cc1`, 146 to 151 °C. As for `COC(=O)c1ccc2c(c1)C(=O)c1ccc(C(=O)OC)cc1C2=O`, the melting point stood at 260 °C. The value for `CCOC(=O)C(CCCCCc1ccc(Cl)cc1)NS(C)(=O)=O` (stereo not drawn) was 60 to 62 °C; that for `CCOC(=O)c1csc(C)c1S(=O)(=O)NC(=O)n1nc(OC)n(C)c1=O` was 176 °C; that for `COc1ccc(S(=O)(=O)N(CCNC(C)=O)c2ccc(C)cc2Cc2c(F)cccc2F)cc1OC` was 79.7 °C. For `COc1ccc(O)c(C2(CO)C(=O)N(Cc3ccc(C(F)(F)F)o3)c3cccc(Cl)c32)n1` (stereo not drawn), the melting point lay in the range of 191 to 193 °C.

The compound `COc1cc(-c2csc(-c3ccccc3)n2)cc2oc(=O)c(C)c(C)c12` showed a melting point of 152 to 154 °C. `Cc1cccnc1-c1cccc(OC2SCC(O)C(O)C2O)c1` (stereo not drawn) showed a melting point of 97 to 109 °C. `Cc1noc(NS(=O)(=O)c2c(C(=O)c3ccc4c(c3)OCO4)sc3ncccc23)c1Cl` gave a melting point of 75 to 90 °C. The value for `CC(C)(C)OC(=O)Nc1cc(N2CCC(OC3CCCCO3)C2)c(-c2ccc(F)cc2)cc1NC(=O)CC(=O)c1cccc(-n2ccnc2)c1` (stereo not drawn) was 99 to 103 °C. For the compound `CCOC(=O)c1csc([N+](=O)[O-])c1Br`, the melting point lay in the range of 94 to 95 °C. The value for `CC(C)(CO)NC(=O)c1nn(-c2c(F)cc(F)cc2F)c2c1C1CCC2C1` (stereo not drawn) was 122 to 125 °C; that for `CC(C)(C)NCC(O)COc1ccc(C(=O)Nc2cccc3[nH]ccc23)cc1` (stereo not drawn) was 212 °C; that for `NC(=O)c1ccc(NC(=O)CCc2cnoc2-c2ccccc2)cc1` was 250 to 251 °C. The value for `FC(F)(Cc1c[nH]c2ccc(-n3cnnc3)cc12)CN1CCC(OCc2ccccc2)CC1` was 170 °C; that for `CCCCNc1nc(C)nc2c1nnn2-c1ccc(C(C)C)cc1Br` was 149 to 151 °C; that for `Cc1cn(C)cc(-c2ccccc2)c1=O` was 111 to 113 °C.

Turning to `CCCN(c1nc(-c2ccc(Cl)cc2Cl)c(C=O)s1)C(C)c1ccncc1` (stereo not drawn), the melting point is 114 °C. `Cc1nc2ccc(N)cc2c(=O)n1C1CCC(=O)NC1=O` (stereo not drawn) had a melting point of 314 to 316 °C. With `Cc1nc(NC(=O)c2ccc(Cl)c(Cl)c2)sc1C(=O)NCc1ccccc1` the figure was 212 to 214 °C. In turn, `CC(C)(C)NC(=O)C1CC(Cl)CN1C(=O)C(O)C(Cc1ccccc1)NC(=O)C(CC(N)=O)NC(=O)C(COC1CCCO1)NC(=O)OCc1ccccc1` (stereo not drawn) displayed a melting point of 64 to 71 °C. Turning to `Cc1ccc(N2CCSC2N)c([N+](=O)[O-])c1` (stereo not drawn), the melting point is 132 to 134 °C. With `Cc1cc2ccccc2c(C2CC(=O)C=C(O)C2)c1C` (stereo not drawn) the figure was 242 °C; with `CCOC(=O)c1ccc(NCCOc2ccc(Br)cc2)cc1`, 128 to 133 °C; with `Nc1nc(CCCO)nc2c1ncn2C1OC(CO)C(O)C1S` (stereo not drawn), 117 to 119 °C. The value for `CN(C(=O)OC(C)(C)C)[C@H]1CC[C@H](/C=C/CCl)CC1` was 42.5 to 43.9 °C; that for `Cc1cccc(C)c1N(Cc1ccon1)C(=O)CCl` was 78 to 81 °C. Regarding `CON1CCC2(CC1)C(O)=C(c1cc(C)c(C)cc1Cl)C(=O)N2C`, the melting point was 191 to 192 °C. With `COc1ccc(C(=O)[C@H]2CC=CC[C@H]2C(=O)O)cc1Br` (relative stereo) the figure was 201 to 204 °C; with `Cc1ccc(C)c(OC(C)(C)C(=O)O)c1`, 107 to 109 °C. With `Cc1ccc(S(=O)(=O)n2ccc3c(OCC4CO4)cccc32)cc1` (stereo not drawn) the figure was 109 to 112 °C; with `N#CCCNC(=O)c1cccc(-c2cccc3nn(Cc4cccc(C(F)(F)F)c4)cc23)n1`, 178 to 179 °C. In the case of `COC(C)c1cccc(NC(=O)NCC(=O)N(CC(=O)N(C)c2ccccc2)c2ccccc2)c1` (racemic), the melting point was determined as 194 °C. Consider `COc1cc[nH]c1C=C1C(=O)Nc2cccc(C#CC(O)c3ccc(OCC(=O)OC(C)(C)C)cc3)c21` (racemic), for which the melting point is 173 to 175 °C. The value for `CCC1(Br)Cc2cc(OCC(=O)O)c(C)c(C)c2C1=O` (stereo not drawn) was 136 to 139 °C; that for `O=C(O)[C@H](CCc1ccccc1)NS(=O)(=O)c1ccc2c(c1)Cc1ccccc1-2` was 128 to 131 °C. The value for `Cc1oc2cc(C=O)ccc2c1C` was 73 to 74 °C; that for `O=C(Cc1ccc(OCc2cccs2)cc1)NC1(C(=O)O)Cc2ccc(-c3ccc(Cl)cc3)cc2C1` (stereo not drawn) was 201 °C; that for `Nc1ccc(CNc2n[nH]c3ncnc(Nc4cccc(Cl)c4)c23)cc1` was 170 to 171 °C. `CC(C)(COc1ncc(C(F)(F)F)cc1Cl)C(=O)C(Oc1ccc(F)cc1)n1cncn1` (stereo not drawn) had a melting point of 104 to 106 °C. `O=C1C(Br)CCN1c1ccc(OCc2ccccc2)cc1` (racemic) gave a melting point of 125 to 126 °C. With `CCN(CC)c1ccc(Cn2nc(-c3ccccc3O)nc2-c2ccccc2O)cc1`, the melting point fell in the range of 125 to 127 °C. In the case of `CC(C)CC1(C(C)C(=O)O)CCN(CCc2ccccc2)C1=O` (stereo not drawn), the melting point lay in the range of 94 to 95 °C. With `CC(=O)N(C)C[C@H]1CN(c2ccc(N3CCC(=CC#N)CC3)c(F)c2)C(=O)O1` the figure was 128 to 132 °C; with `CN(Cc1ccccc1)C(Cc1ccccc1)C(=O)O` (stereo not drawn), 214 to 215 °C; with `CCC(=O)OC1c2ccccc2C(=O)N1c1ccc2ccc(Cl)nc2n1` (stereo not drawn), 160 °C. The value for `Cc1c(N)ccn2nc(-c3ccccc3)nc12` was 213 to 215 °C. With `OCc1cnc2c(F)cccc2c1O` the figure was 176 to 178 °C; with `c1cc(N2CCCCC2)ccc1OC12CCC(CC1)CC2`, 66 to 68 °C; with `Cc1cn(C(C)(C)C(=O)N(C)c2ccccc2)nc1-c1ccccc1`, 152 to 154 °C.

In the case of `CSc1nc(Cc2ccccc2[N+](=O)[O-])n[nH]1`, the melting point fell in the range of 120 to 132 °C. The value for `CC1(C)CN=C(Cc2ccc(Cl)cc2)NC1` was 130 to 132 °C; that for `CCN(CC)CCNC(=O)c1cc(Cl)c(NC(=O)c2ccc3ccccc3c2)cc1OC` was 173 to 174 °C; that for `OCc1onc(-c2ccc(Cl)o2)c1-c1ccccc1` was 102 to 103 °C. With `CC(=O)Oc1c(-c2ccccc2)sc2nc(C(C)(C)C)ccc12` the figure was 128 to 129 °C; with `CN(CCN(O)C(N)=O)Cc1cccc(Oc2ccc(Cl)cc2)c1`, 111 to 113 °C; with `COc1ccc(Oc2ccc3nc(COc4ccc(CC5SC(=O)NC5=O)cc4)n(C)c3c2)cc1` (stereo not drawn), 122 to 126 °C.

(Values after a melting point compilation (Tetko et al.; mined from patent text by program, amines drawn as free bases though some values may be those of a salt).)
